What was measured:
[1] = tested on: PC-3 cell line (prostate adenocarcinoma); assay: Safety of compounds as non-oncogenic: cancer cell proliferation, PC-3; type: cell-based, human; details: FIG. 7A, serum and FGF positive controls
Protocol: (§1) The safety of the compounds was tested in two different human cancer cell lines purchased from ATCC. FIG. 7A cell line PC-3 was of prostate/adenocarcinoma from a person, and FIG. 7B cell line PANC-1 was from a pancreatic duct epitheloid carcinoma from a person. Serum and FGF (Fibroblast Growth Factor) conditions were used as positive controls. *, **, ***, **** indicates difference from the control, One-way ANOVA, with p<0.05, p<0.01, p<0.001, p<0.0001, respectively. Data are presented as Mean+/−SEM.
(§2) The safety of the compounds were tested in two different human cancer cell lines purchased from ATCC. Serum and FGF (Fibroblast Growth Factor) conditions were used as positive controls. *, **, ***, **** indicates difference from the control, One-way ANOVA, with p<0.05, p<0.01, p<0.001, p<0.0001, respectively. Data are presented as Mean+/−SEM.
Cell line PC-3 of prostate/adenocarcinoma from a person (FIG. 7A)

[2] = tested on: PANC-1 cell line (pancreatic duct epitheloid carcinoma); assay: Safety of compounds as non-oncogenic: cancer cell proliferation, PANC-1; type: cell-based, human; details: FIG. 7B, serum and FGF positive controls
Protocol: as §1, §2
Cell line PANC-1 was from a pancreatic duct epitheloid carcinoma from a person (FIG. 7B).

Human primary myoblasts = assay: Myogenic amplification and commitment of muscle stem cells (Pax7/MyoD staining); type: cell-based; details: dose response, donors 1 and 2 pooled, 96 hours, control DMSO 1%; for proportion of MyoD+ cells (normalized to total cell number, fold change compared to control): FIG. 1B/2B
Protocol: Human Skeletal Muscle Myoblasts were purchased from Lonza (https://bioscience.lonza.com). These cells were isolated from the upper arm or leg muscle tissue of normal donors and used after the second passage. Several donors were tested to ensure cell viability and purity before selecting the final donors, which are a person (refer thereafter as Donor 1), a person (refer thereafter as Donor 2) and a person (refer thereafter as Donor 3). Human primary myoblasts were seeded in 384 well plates at a density of 1′000 cells per well in skeletal muscle growth medium (SKM-M, AMSbio). For treatment, compounds were directly added to the myoblast cultures 16 hours after initial plating. All cultures were then grown for 96 hours. Cells were stained for Pax7 and MyoD expression using antibodies directed against Pax7 and MyoD and counterstained with Hoechst 33342 to visualize cell nuclei. Pax7+ cells are defined as cells that express Pax7 regardless of MyoD expression. […] Image acquisition was performed using the ImageXpress (Molecular Devices) platform. Custom module analysis based on Multi-Wavelength Cell Scoring of the MetaXpress software was used for quantification. *, **, ***, **** indicates difference from the control, One-way ANOVA, with p<0.05, p<0.01, p<0.001, p<0.0001, respectively. Data are presented as Mean+/−SEM Human primary myoblasts from different donors (donor 1, donor 2 or donor 3) were seeded in 384 well plates at a density of 1′000 cells per well in skeletal muscle growth medium (SKM-M, AMSbio). For treatment, compounds were directly added to the myoblast cultures 16 hours after initial plating. All cultures were then grown for 96 hours. Cells were stained for Pax7 and MyoD expression using antibodies directed against Pax7 and MyoD and counterstained with Hoechst 33342 to visualize cell nuclei. Pax7+ cells are defined as cells that express Pax7 regardless of MyoD expression. […] Custom module analysis based on Multi-Wavelength Cell Scoring of the MetaXpress software was used for quantification. […] Data are expressed as number of cells per arear of injured muscle.

Row | SMILES | proliferation of cancer cells [1] | proliferation of cancer cells [2] | proportion of Pax7+ cells (normalized to total cell number, fold change compared to control) (Human primary myoblasts; FIG. 1A) | proportion of MyoD+ cells (normalized to total cell number, fold change compared to control) (Human primary myoblasts)
1 | NC(=O)c1cccnc1 [Nicotinamide] | no effect on the proliferation of cancer cells | no effect on the proliferation of cancer cells | increasing the proportion of both amplifying (Pax7+) and differentiating (MyoD+) cells in a dose dependent manner | increasing the proportion of both amplifying (Pax7+) and differentiating (MyoD+) cells in a dose dependent manner
2 | Cc1ncc(CO)c(CO)c1O [Pyridoxine] | no effect on the proliferation of cancer cells | no effect on the proliferation of cancer cells |  | increasing the proportion of differentiating (MyoD+) cells in a dose dependent manner

From patent publication US12691105B2, “Compositions containing nicotinamide and vitamin B6 and methods of using such compositions for treating cachexia or precachexia” (SOCIETE DES PRODUITS NESTLE S.A., priority 2020, dated 2026)
